The record followed here is US12091425B2 (AMGEN INC., priority 2016, dated 2024).

In experiment [1] the test system is OPM-2 human multiple myeloma cell line. In words: Cell Viability Assay (OPM-2 10 FBS). The experiment is classed as cell-based. As to conditions: OPM-2 cells, CellTiter-Glo. As to the method:
Cell Viability Assay (OPM-2 10 FBS)
Cells were seeded into 384-well plates at 3000 cells/well density in complete growth medium containing 10% FBS, and incubated for 16 h with serially diluted test compounds in a 37° C. incubator with 5% CO2. Cell viability was tested using CellTiter-Glo® assay (Promega, Madison, WI) according to the manufacturer recommendations. Luminescence was determined using an EnVision® Multilabel plate reader 25 min after the addition of detection reagent. IC50 values were then calculated with Xlfit using a logistical 4-parameter fit model in GraphPad Prism (GraphPad Software, San Diego, CA) or in Genedata Screener® (Genedata, Basel, Switzerland).

Experiment [2] deals with T1, Mcl-1/Bim interaction, recombinant human Mcl-1 (171-327) (Homo sapiens, UniProt Q07820).
T1 construct: made in house
T1 sequence (Q07820 171-327): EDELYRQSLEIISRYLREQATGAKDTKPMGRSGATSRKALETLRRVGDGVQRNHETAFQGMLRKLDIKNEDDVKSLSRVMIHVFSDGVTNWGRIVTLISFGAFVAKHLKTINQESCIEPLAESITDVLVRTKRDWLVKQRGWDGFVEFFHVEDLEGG
In words: Cell free Mcl-1: Bim Affinity Assay (Mcl-1 HTRF). It counts as binding. The procedure, abridged:
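TR-FRET competition assay with biotinylated human Bim peptide (residues 51-76); reaction plates incubated overnight before reading. IC50 values came from duplicate data fitted to a four-parameter sigmoidal competition curve.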

[3] abbreviates: Homo sapiens, OPM-2, 16 h, 16 h.
The mark [4] stands for this setting: TR-FRET, 0.1 nM Mcl-1 (171-327), 0.05 nM biotin-Bim (51-76).
Where [5] appears, read: cell free Mcl-1:Bim TR-FRET, recombinant human Mcl-1 (171-327).

In the case of `C[C@H]1[C@H]2/C=C/[C@H](O)[C@@H]3CC[C@H]3CN3C[C@@]4(CCCc5cc(Cl)ccc54)COc4ccc(cc43)C(=O)NS(=O)(=O)[C@H]1CCC2` (single isomer, unassigned) [Example 111], the 50% inhibitory concentration (IC50) (as a rule, the concentration that gives 50% inhibition) in experiment [1] (setting [3]) was found to be 17800 nM; in experiment [2] (setting [4]) it was 30.8 nM.

On to `COCCO[C@H]1/C=C/C[C@H](C)NS(=O)(=O)NC(=O)c2ccc3c(c2)N(C[C@@H]2CC[C@H]21)C[C@@]1(CCCc2cc(Cl)ccc21)CO3` [Example 68, (1S,3′R,6′R,7′S,8′E,11′S)-6-chloro-7′-(2-methoxyethoxy)-11′-methyl-3,4-dihydro-2H,15′H-spiro[naphthalene-1,22′-[20]oxa[13]thia[1,12,14]triazatetracyclo[14.7.2.0^3,6.0^19,24]pentacosa[8,16,18,24]tetraen]-15′-one 13′,13′-dioxide], for which the IC50 came to 248 nM in experiment [1] (setting [3]) and 0.359 nM in experiment [2] (setting [4]).

As for `COCCOCC[C@@H]1[C@@H](C)C/C=C/[C@H](O)[C@@H]2CC[C@H]2CN2C[C@@]3(CCCc4cc(Cl)ccc43)COc3ccc(cc32)C(=O)NS1(=O)=O` (single isomer, unassigned) [Example 401], the half-inhibitory concentration (IC50) in experiment [1] (16 h) was determined as 452 nM; in experiment [2] (setting [4]), 0.531 nM.

With `C[C@H]1C/C=C/[C@H](O)[C@@H]2CC[C@H]2CN2C[C@@]3(CCCc4cc(Cl)ccc43)COc3ccc(cc32)C(=O)NS(=O)(=O)N1CCN(C)C` [Example 76, (1S,3′R,6′R,7′S,8′E,11′S)-6-chloro-12′-(2-(dimethylamino)ethyl)-7′-hydroxy-11′-methyl-3,4-dihydro-2H,15′H-spiro[naphthalene-1,22′-[20]oxa[13]thia[1,12,14]triazatetracyclo[14.7.2.0^3,6.0^19,24]pentacosa[8,16,18,24]tetraen]-15′-one 13′,13′-dioxide], the IC50 was found to be 146 nM in experiment [1] (setting [3]) and 0.405 nM in experiment [2] (setting [4]).

Turning to `COCC[C@@H]1C[C@@H](C)/C=C/[C@H](O)[C@@H]2CC[C@H]2CN2C[C@@]3(CCCc4cc(Cl)ccc43)COc3ccc(cc32)C(=O)NS1(=O)=O` (single isomer, unassigned) [Example 477], the IC50 in experiment [1] (16 h) was 286 nM; in experiment [2] (setting [5]), 0.311 nM.

For the molecule `CO[C@H]1/C=C/[C@H](O)[C@@H]2CC[C@H]2CN2C[C@@]3(CCCc4cc(Cl)ccc43)COc3ccc(cc32)C(=O)NS(=O)(=O)[C@@H](C)C1` (single isomer, unassigned) [Example 488], the figures for the IC50 in experiment [1] (16 h) and in experiment [2] (setting [5]) were 12900 nM and 5.21 nM, respectively.

With `O=C1NS(=O)(=O)CCC/C(Br)=C\[C@@H](O)[C@@H]2CC[C@H]2CN2C[C@@]3(CCCc4cc(Cl)ccc43)COc3ccc1cc32` (single isomer, unassigned) [Example 236], the figures for the concentration for half-maximal inhibition (IC50) in experiment [1] (16 h) and in experiment [2] (setting [4]) were 13700 nM and 6.42 nM, respectively.

Consider `O=C1NS(=O)(=O)N2CCC[C@H]2C/C=C/[C@H](O)[C@@H]2CC[C@H]2CN2C[C@@]3(CCCc4cc(Cl)ccc43)COc3ccc1cc32` (single isomer, unassigned) [Example 345], for which the half-maximal inhibitory concentration (IC50) in experiment [1] (setting [3]) worked out at 488 nM; in experiment [2] (setting [4]) it was 0.877 nM.

`O=C1NS(=O)(=O)C(Cc2ccc(Br)cc2)CCC=CC(O)C2CCC2CN2CC3(CCCc4cc(Cl)ccc43)COc3ccc1cc32` (single isomer, unassigned) [Example 633]: the results for the IC50 in experiment [1] (16 h) and in experiment [2] (setting [5]) were 17800 nM and 23.1 nM, respectively.

Regarding `COC[C@H](O)CN1[C@@H](C)C/C=C/[C@H](O)[C@@H]2CC[C@H]2CN2C[C@@]3(CCCc4cc(Cl)ccc43)COc3ccc(cc32)C(=O)NS1(=O)=O` [Example 687, (1S,3′R,6′R,7′S,8′E,11′S)-6-chloro-7′-hydroxy-12′-((2R)-2-hydroxy-3-methoxypropyl)-11′-methyl-3,4-dihydro-2H,15′H-spiro[naphthalene-1,22′-[20]oxa[13]thia[1,12,14]triazatetracyclo[14.7.2.0^3,6.0^19,24]pentacosa[8,16,18,24]tetraen]-15′-one 13′,13′-dioxide], the concentration for half-maximal inhibition (IC50) in experiment [1] (setting [3]) came to 148 nM; in experiment [2] (setting [5]) it was 0.207 nM.

Take `CC[C@H]1C/C=C/[C@H](O)[C@@H]2CC[C@H]2CN2C[C@@]3(CCCc4cc(Cl)ccc43)COc3ccc(cc32)C(=O)NS(=O)(=O)N1` (single isomer, unassigned) [Example 685]: the figures for the IC50 in experiment [1] (16 h) and in experiment [2] (setting [5]) were 7180 nM and 2.66 nM, respectively.

Consider `CC[C@@H]1CC/C=C/[C@H](OCc2ncn(C)n2)[C@@H]2CC[C@H]2CN2C[C@@]3(CCCc4cc(Cl)ccc43)COc3ccc(cc32)C(=O)NS1(=O)=O` [Example 423, (1S,3′R,6′R,7′S,8′E,12′R)-6-chloro-12′-ethyl-7′-((1-methyl-1H-1,2,4-triazol-3-yl)methoxy)-3,4-dihydro-2H,15′H-spiro[naphthalene-1,22′-[20]oxa[13]thia[1,14]diazatetracyclo[14.7.2.0^3,6.0^19,24]pentacosa [8,16,18,24]tetraen]-15′-one 13′,13′-dioxide], for which the IC50 in experiment [1] (setting [3]) came to 198 nM; in experiment [2] (setting [4]), 0.249 nM.

`C[C@@]12C/C=C/[C@H](O)[C@@H]3CC[C@H]3CN3C[C@@]4(CCCc5cc(Cl)ccc54)COc4ccc(cc43)C(=O)NS(=O)(=O)[C@H]1CCC2` (single isomer, unassigned) [Example 131]: the concentration for half-maximal inhibition (IC50) is 1820 nM in experiment [1] (16 h) and 1.83 nM in experiment [2] (setting [4]).

As for `CC1CC(C)CS(=O)(=O)NC(=O)c2ccc3c(c2)N(CC2CCC2C(O)C1)CC1(CCCc2cc(Cl)ccc21)CO3` (single isomer, unassigned) [Example 270], the IC50 worked out at 116 nM in experiment [1] (16 h) and 1.03 nM in experiment [2] (setting [4]).

As to `O=C(O)CO[C@@H]1/C=C/CCCS(=O)(=O)NC(=O)c2ccc3c(c2)N(C[C@@H]2CC[C@H]21)C[C@@]1(CCCc2cc(Cl)ccc21)CO3` [Example 218, (((1S,3′R,6′R,7′R,8′E)-6-chloro-13′,13′-dioxido-15′-oxo-3,4-dihydro-2H-spiro[naphthalene-1,22′-[20]oxa[13]thia[1,14]diazatetracyclo[14.7.2.0^3,6.0^19,24]pentacosa [8,16,18,24]tetraen]-7′-yl)oxy)acetic acid], the 50% inhibitory concentration (IC50) in experiment [1] (setting [3]) was found to be 3670 nM; in experiment [2] (setting [4]) it was 0.216 nM.

As to `N#CCC[C@H]1CC/C=C/[C@H](O)[C@@H]2CC[C@H]2CN2C[C@@]3(CCCc4cc(Cl)ccc43)COc3ccc(cc32)C(=O)NS1(=O)=O` (single isomer, unassigned) [Example 614], the IC50 in experiment [1] (16 h) worked out at 8070 nM; in experiment [2] (setting [5]), 1.13 nM.

As for `CC[C@@H]1[C@@H](OCCOC)C/C=C/[C@H](O)[C@@H]2CC[C@H]2CN2C[C@@]3(CCCc4cc(Cl)ccc43)COc3ccc(cc32)C(=O)NS1(=O)=O` (single isomer, unassigned) [Example 470], the IC50 is 355 nM in experiment [1] (16 h) and 0.726 nM in experiment [2] (setting [5]).

For `CCC1C(C)C(C)C=CC(O)C2CCC2CN2CC3(CCCc4cc(Cl)ccc43)COc3ccc(cc32)C(=O)NS1(=O)=O` (single isomer, unassigned) [Example 1055], the concentration for half-maximal inhibition (IC50) in experiment [1] (16 h incubation) was determined as 257 nM; in experiment [2] (setting [4]), 0.394 nM.

Take `CO[C@@H]1/C=C/[C@H](O)[C@@H]2CC[C@H]2CN2C[C@@]3(CCCc4cc(Cl)ccc43)COc3ccc(cc32)C(=O)NS(=O)(=O)CC1` [Example 536, (1S,3′R,6′R,7′S,8′E,10′S)-6-chloro-7′-hydroxy-10′-methoxy-3,4-dihydro-2H,15′H-spiro[naphthalene-1,22′-[20]oxa[13]thia[1,14]diazatetracyclo[14.7.2.0^3,6.0^19,24]pentacosa [8,16,18,24]tetraen]-15′-one 13′,13′-dioxide]: the half-inhibitory concentration (IC50) turned out to be 21300 nM in experiment [1] (setting [3]) and 1.99 nM in experiment [2] (setting [5]).
